Broadly, the IC50 is the concentration that gives 50% inhibition.

We go through 25 compounds from ChEMBL document CHEMBL5257121, “Discovery of arylsulfonamides as a novel class of allosteric integrase inhibitors with antiviral activity” (Bioorg Med Chem Lett, 2023).

A short description of test [1]: Allosteric inhibition of LEDGF binding to HIV integrase by InLEAD assay. On the set-up: species or system Human immunodeficiency virus.
Test [2] has as its system Human immunodeficiency virus 1. The test is described as follows: Antiviral activity against HIV-1. The test is classed as functional, organism-based.
Test [3] relates to Human immunodeficiency virus 1. The test is described as follows: Antiviral activity against late stage HIV-1 assessed as inhibition of viral replication. The test is classed as functional, organism-based.
For test [4], the system named is Human immunodeficiency virus 1. The test is described as follows: Selectivity ratio of IC50 for antiviral activity against early stage HIV-1 to IC50 for antiviral activity against late stage HIV-1. The test is classed as functional.
Test [5] concerns Human immunodeficiency virus 1. The test is described as follows: Antiviral activity against early stage HIV-1 assessed as disruption of proviral integration. The format is functional, organism-based.

Regarding `COc1ccc(NC(=O)c2cccc(-c3ccccc3S(=O)(=O)NC(C)(C)C)c2)c(C)c1`, the IC50 turned out to be 1.91 µM in test [1] and 5.03 µM in test [2].
On to `Cc1ccc(-c2c([C@H](OC(C)(C)C)C(=O)O)c(C)nc3ccccc23)cc1C`, for which the IC50 was 0.031 µM in test [3], 0.037 µM in test [1] and 1.67 µM in test [5]. For the same compound, the “Ratio IC50” value in test [4] is listed as 53.9.
As for `COc1ccc(NC(=O)c2cncc(-c3cc(C)ccc3S(=O)(=O)NC(C)(C)C)c2)cc1`, the results for the IC50 in test [1] and in test [2] were 8.85 µM and 15.6 µM, respectively.
For `CC(C)(C)NS(=O)(=O)c1ccccc1-c1cncc(C(=O)Nc2ccc(CCC(=O)NCCNC(=O)c3ccc4c(c3)C(=O)OC43c4ccc(O)cc4Oc4cc(O)ccc43)cc2)c1`, the IC50 in test [1] stood at 0.368 µM.
For `CC(C)(C)NS(=O)(=O)c1ccccc1-c1cncc(C(=O)Nc2ccc(CCCC(=O)O)cc2)c1`, the values for the IC50 in test [1] and in test [2] were 1 µM and 7.86 µM, respectively.
`COc1ccc(NC(=O)c2cncc(-c3c(C)cccc3S(=O)(=O)NC(C)(C)C)c2)cc1`: the IC50 in test [3] was determined as 2.7 µM; in test [1] it was 1.29 µM; in test [2], 1.4 µM; in test [5], 25.2 µM. For the same compound, the “Ratio IC50” value in test [4] was 9.3.
As for `COc1ccc(NC(=O)c2cccc(-c3ccccc3S(=O)(=O)NC(C)(C)C(C)(C)C)c2)cc1`, the concentration for half-maximal inhibition (IC50) is > 22.5 µM in test [1] and 27.7 µM in test [2].
For `COC(=O)CCc1ccc(NC(=O)c2cccc(-c3ccccc3S(=O)(=O)NC(C)(C)C)c2)cc1` the same measures were 1.45 µM and 4.91 µM.
On to `Cc1ccc(NC(=O)c2cccc(-c3ccccc3S(=O)(=O)NC(C)(C)C)c2)c(C)c1`, for which the values for the half-inhibitory concentration (IC50) in test [1] and in test [2] were 1.05 µM and 5.1 µM, respectively.
For `COc1ccc(NC(=O)c2cccc(-c3ccccc3S(=O)(=O)NC3(C)CCC3)c2)cc1` the same measures were 2.23 µM and 5.79 µM.
The like results for `COc1ccc(NC(=O)c2cccc(-c3ccccc3S(=O)(=O)NC(C)(C)C)c2)cc1` were, in that order, 3.69 µM and 10.9 µM.
With `CC(C)(C)NS(=O)(=O)c1ccccc1-c1cccc(C(=O)Nc2ccc(CCC(=O)O)cc2)c1`, the IC50 is 12 µM in test [3], 3.74 µM in test [1], 6.53 µM in test [2] and > 42 µM in test [5]. Also, the “Ratio IC50” value in test [4] was >3.6.
For `COC(=O)C(Cc1ccccc1)NC(=O)CCc1ccc(NC(=O)c2cncc(-c3ccccc3S(=O)(=O)NC(C)(C)C)c2)cc1` (stereo not drawn), the IC50 turned out to be 3.22 µM in test [1] and 3 µM in test [2].
Turning to `COc1ccc(NC(=O)c2cccc(-c3ccccc3S(=O)(=O)NC(C)(C)C)n2)cc1`, the IC50 in test [1] was > 33.8 µM; in test [2] it was 11.2 µM.
For `CCC(C)(C)NS(=O)(=O)c1ccccc1-c1cccc(C(=O)Nc2ccc(OC)cc2)c1` the same measures were 17.3 µM and 7.19 µM.
Regarding `COc1ccc(NC(=O)c2cccc(-c3ccccc3S(=O)(=O)NC(C)(C)CC(C)(C)C)c2)cc1`, the IC50 in test [1] was > 67.5 µM; in test [2], 2.91 µM.
The like results for `COc1ccc(NC(=O)c2cc(-c3ccccc3S(=O)(=O)NC(C)(C)C)ccc2F)cc1` were, in that order, 2.81 µM and 9.43 µM.
Regarding `COc1ccc(NC(=O)c2cncc(-c3cccc(C)c3S(=O)(=O)NC(C)(C)C)c2)cc1`, the results for the IC50 in test [1] and in test [2] were > 67.5 µM and 16.1 µM, respectively.
On to `COc1ccc(NC(=O)c2cncc(-c3ccccc3S(=O)(=O)NC(C)(C)C)c2)cc1`, for which the IC50 in test [3] was 5.09 µM; in test [1] it was 1.29 µM; in test [2], 7.93 µM; in test [5], 27.3 µM. In addition, the “Ratio IC50” value in test [4] is reported as 5.4.
In the case of `COc1ccc(NC(=O)c2cc(-c3ccccc3S(=O)(=O)NC(C)(C)C)ccc2Cl)cc1`, the figures for the IC50 in test [1] and in test [2] were > 67.5 µM and > 42 µM, respectively.
For `COc1ccc(NC(=O)c2cccc(-c3ccccc3S(=O)(=O)NC3(C)CC3)c2)cc1` the same measures were 5.97 µM and 5.81 µM.
For the compound `COCC1(NS(=O)(=O)c2ccccc2-c2cccc(C(=O)Nc3ccc(OC)cc3)c2)CCCC1`, the IC50 was 7.15 µM in test [3], > 67.5 µM in test [1], 5.15 µM in test [2] and 16.3 µM in test [5]. The “Ratio IC50” value in test [4] stood at 2.3.
In the case of `COc1ccc(NC(=O)c2cncc(-c3ccc(C)cc3S(=O)(=O)NC(C)(C)C)c2)cc1`, the IC50 in test [1] was > 67.5 µM; in test [2], 10.8 µM.
Take `CC(C)(C)NS(=O)(=O)c1ccccc1-c1cncc(C(=O)Nc2ccc(CCC(=O)O)cc2)c1`: the IC50 was found to be 1.29 µM in test [1] and 9.31 µM in test [2].
For `COc1ccc(NC(=O)c2cc(-c3ccccc3S(=O)(=O)NC(C)(C)C)ccn2)cc1` the same measures were 3.79 µM and 6.35 µM.
